From patent US10532995B2, “Substituted pyrazole compounds as serine protease inhibitors” (VERSEON CORPORATION, priority 2015, dated 2020)
Structures can show the parent of a compound that is named as a salt.

Target: T1, Human thrombin (Homo sapiens, UniProt P00734)
T1 construct: purchased Haematologic Technologies Inc
Assay: Thrombin protease activity inhibition, chromogenic substrate S-2238
Assay type: biochemical
Settings: 3 nM thrombin, 125 μM S-2238, 10 min pre-incubation, RT
Method: The thrombin activity reported herein (e.g., Table A) was obtained as follows. […] Thrombin was assayed in buffer containing 0.05 M Tris (pH 7.4), 0.015 M NaCl and 0.01% PEG-8000. The final concentration of enzyme used was 3 nM thrombin. […] All assays were performed in 96-well microtiter plates at room temperature (RT). […] Inhibitor IC50 values were determined by adding test compound as ten point, three-fold serial dilutions in buffer solution, as known in the art. The plate was read at 10 minutes after substrate addition. The IC50 was calculated by plotting the percent (%) inhibition against compound concentration and fitting the data to a constrained four parameter sigmoidal curve, as known in the art.

IC50 [µM]	SMILES
> 100	C=CCOC(=O)N1CCN(S(=O)(=O)N2CCOCC2)CC1c1cc(NCc2ccc(Cl)s2)[nH]n1 (stereo not shown) [Entry 250, prop-2-en-1-yl 2-(5-[(5-chlorothiophen-2-yl)methyl]amino-1H-pyrazol-3-yl)-4-(morpholine-4-sulfonyl)piperazine-1-carboxylate]
> 100	C=CCOC(=O)N1CCN(C(=O)CN2CCOCC2)CC1c1cc(NCc2ccc(Cl)s2)[nH]n1 (stereo not shown) [Entry 251, prop-2-en-1-yl 2-(5-[(5-chlorothiophen-2-yl)methyl]amino-1H-pyrazol-3-yl)-4-[2-(morpholin-4-yl)acetyl]piperazine-1-carboxylate]
> 100	FC(F)(CN1CCC(c2cc(NCc3ccc(Cl)s3)[nH]n2)CC1)c1ccccn1 [Entry 222, N-[(5-chlorothiophen-2-yl)methyl]-3-1-[2,2-difluoro-2-(pyridin-2-yl)ethyl]piperidin-4-yl-1H-pyrazol-5-amine]
< 0.1	C=CCOC(=O)N1CCCC(c2cc(NCc3ccc(Cl)s3)n(C(=O)c3cscn3)n2)CC1 (stereo not shown) [Entry 260, prop-2-en-1-yl 4-(5-[(5-chlorothiophen-2-yl)methyl]amino-1-(1,3-thiazole-4-carbonyl)-1H-pyrazol-3-yl)azepane-1-carboxylate]
> 100	C=CCOC(=O)N1CCN(S(C)(=O)=O)CC1c1cc(NCc2ccc(Cl)s2)n(C(=O)C(C)(C)C)n1 (stereo not shown) [Entry 246, prop-2-en-1-yl 2-(5-[(5-chlorothiophen-2-yl)methyl]amino-1-(2,2-dimethylpropanoyl)-1H-pyrazol-3-yl)-4-methanesulfonylpiperazine-1-carboxylate]
< 0.1	CC(C)(C)OC(=O)N1CCCC(c2cc(NCc3ccc(Cl)s3)n(C(=O)C(C)(C)CO)n2)C1 (stereo not shown) [Entry 283, tert-butyl 3-(5-[(5-chlorothiophen-2-yl)methyl]amino-1-(3-hydroxy-2,2-dimethylpropanoyl)-1H-pyrazol-3-yl)piperidine-1-carboxylate]
< 0.1	CC(C)(C)OC(=O)N1CCC(C)(c2cc(NCc3ccc(Cl)s3)n(C(=O)C(C)(C)C)n2)CC1 [Entry 291, tert-butyl 4-(5-[(5-chlorothiophen-2-yl)methyl]amino-1-(2,2-dimethylpropanoyl)-1H-pyrazol-3-yl)-4-methylpiperidine-1-carboxylate]
10 to 100	C=CCOC(=O)N1C2CCC1CC(c1cc(NCc3ccc(Cl)s3)[nH]n1)C2 (stereo not shown) [Entry 257, prop-2-en-1-yl 3-(5-[(5-chlorothiophen-2-yl)methyl]amino-1H-pyrazol-3-yl)-8-azabicyclo[3.2.1]octane-8-carboxylate]
> 100	C=CCOC(=O)N1CCC(c2cc(NCc3ccc(Cl)s3)[nH]n2)C1 (stereo not shown) [Entry 259, prop-2-en-1-yl 3-(5-[(5-chlorothiophen-2-yl)methyl]amino-1H-pyrazol-3-yl)pyrrolidine-1-carboxylate]
< 0.1	C=CCOC(=O)N1CC(c2cc(NCc3ccc(Cl)s3)n(C(=O)C(C)(C)C)n2)C1 [Entry 255, prop-2-en-1-yl 3-(5-[(5-chlorothiophen-2-yl)methyl]amino-1-(2,2-dimethylpropanoyl)-1H-pyrazol-3-yl)azetidine-1-carboxylate]
0.1 to 1	CC(C)(C)OC(=O)N1CCCC(C)(c2cc(NCc3ccc(Cl)s3)n(C(=O)C3(C)CCOCC3)n2)C1 (stereo not shown) [Entry 286, tert-butyl 3-(5-[(5-chlorothiophen-2-yl)methyl]amino-1-(4-methyloxane-4-carbonyl)-l H-pyrazol-3-yl)-3-methylpiperidine-1-carboxylate]
< 0.1	CC(C)(C)OC(=O)N1CCCC(C)(c2cc(NCc3ccc(Cl)s3)n(C(=O)C(C)(C)C)n2)C1 (stereo not shown) [Entry 278, tert-butyl 3-(5-[(5-chlorothiophen-2-yl)methyl]amino-1-(2,2-dimethylpropanoyl)-1H-pyrazol-3-yl)-3-methylpiperidine-1-carboxylate]
< 0.1	CC(C)(C)OC(=O)N1CCC(c2cc(NCc3ccc(Cl)s3)n(C(=O)C(C)(C)CO)n2)CC1 [Entry 297, tert-butyl 4-(5-[(5-chlorothiophen-2-yl)methyl]amino-1-(3-hydroxy-2,2-dimethylpropanoyl)-1H-pyrazol-3-yl)piperidine-1-carboxylate]
> 100	Clc1ccc(CNc2cc(C3CCN(CCc4ccccn4)CC3)n[nH]2)s1 [Entry 224, N-[(5-chlorothiophen-2-yl)methyl]-3-1-[2-(pyridin-2-yl)ethyl]piperidin-4-yl-1H-pyrazol-5-amine]
< 0.1	CC(C)(C)OC(=O)N1CCCC(c2cc(NCc3ccc(Cl)s3)n(C(=O)C3(C)CCOCC3)n2)C1 (stereo not shown) [Entry 287, tert-butyl 3-(5-[(5-chlorothiophen-2-yl)methyl]amino-1-(4-methyloxane-4-carbonyl)-1H-pyrazol-3-yl)piperidine-1-carboxylate]
> 100	CC(C)(C)OC(=O)N1CCCC(c2cc(NCc3ccc(Cl)s3)[nH]n2)C1 (stereo not shown) [Entry 290, tert-butyl 3-(5-[(5-chlorothiophen-2-yl)methyl]amino-1H-pyrazol-3-yl)piperidine-1-carboxylate]

More lines, now with the values behind:

SMILES	IC50 [µM]
O=C(c1ccoc1)n1nc(C2CCN(Cc3ccccc3)C2)cc1NCc1ccc(Cl)s1 (stereo not shown) [Entry 114, 3-(1-benzylpyrrolidin-3-yl)-N-[(5-chlorothiophen-2-yl)methyl]-1-(furan-3-carbonyl)-1H-pyrazol-5-amine]	1 to 10
Clc1ccc(CNc2cc(C3CC4CCC(C3)N4)n[nH]2)s1 (stereo not shown) [Entry 131, 3-8-azabicyclo[3.2.1]octan-3-yl-N-[(5-chlorothiophen-2-yl)methyl]-1H-pyrazol-5-amine]	> 100
CS(=O)(=O)N1CCC(c2cc(NCc3ccc(Cl)s3)[nH]n2)CC1 [Entry 173, N-[(5-chlorothiophen-2-yl)methyl]-3-(1-methanesulfonylpiperidin-4-yl)-1H-pyrazol-5-amine]	> 100
Clc1ccc(CNc2cc(C3CCN(Cc4nnn[nH]4)CC3)n[nH]2)s1 [Entry 195, N-[(5-chlorothiophen-2-yl)methyl]-3-[1-(1H-1,2,3,4-tetrazol-5-ylmethyl)piperidin-4-yl]-1H-pyrazol-5-amine]	1 to 10
Clc1ccc(CNc2cc(C3CCCO3)n[nH]2)s1 (stereo not shown) [Entry 184, N-[(5-chlorothiophen-2-yl)methyl]-3-(oxolan-2-yl)-1H-pyrazol-5-amine]	> 100
CS(=O)(=O)N1CC(c2cc(NCc3ccc(Cl)s3)[nH]n2)C1 [Entry 172, N-[(5-chlorothiophen-2-yl)methyl]-3-(1-methanesulfonylazetidin-3-yl)-1H-pyrazol-5-amine]	> 100
CC(C)(CO)C(=O)n1nc(C2(C)CCCNC2=O)cc1NCc1ccc(Cl)s1 (stereo not shown) [Entry 119, 3-(5-[(5-chlorothiophen-2-yl)methyl]amino-1-(3-hydroxy-2,2-dimethylpropanoyl)-1H-pyrazol-3-yl)-3-methylpiperidin-2-one]	0.1 to 1
CN(C)S(=O)(=O)N1CCC(c2cc(NCc3ccc(Cl)s3)n(C(=O)C(C)(C)CO)n2)CC1 [Entry 135, 4-(5-[(5-chlorothiophen-2-yl)methyl]amino-1-(3-hydroxy-2,2-dimethylpropanoyl)-1H-pyrazol-3-yl)-N,N-dimethylpiperidine-1-sulfonamide]	< 0.1
Clc1ccc(CNc2cc(C3CCNC3)n[nH]2)s1 (stereo not shown) [Entry 190, N-[(5-chlorothiophen-2-yl)methyl]-3-(pyrrolidin-3-yl)-1H-pyrazol-5-amine]	1 to 10
Clc1ccc(CNc2cc(C3CCCNC3)n[nH]2)s1 (stereo not shown) [Entry 186, N-[(5-chlorothiophen-2-yl)methyl]-3-(piperidin-3-yl)-1H-pyrazol-5-amine]	1 to 10
CC(C)(CO)C(=O)n1nc(C2CCN(CC(=O)O)CC2)cc1NCc1ccc(Cl)s1 [Entry 110, 2-[4-(5-[(5-chlorothiophen-2-yl)methyl]amino-1-(3-hydroxy-2,2-dimethylpropanoyl)-1H-pyrazol-3-yl)piperidin-1-yl]acetic acid]	0.1 to 1
Clc1ccc(CNc2cc(C3CCOCC3)n[nH]2)s1 [Entry 182, N-[(5-chlorothiophen-2-yl)methyl]-3-(oxan-4-yl)-1H-pyrazol-5-amine]	> 100
Clc1ccc(CNc2cc(C3CCCNCC3)n[nH]2)s1 (stereo not shown) [Entry 125, 3-(azepan-4-yl)-N-[(5-chlorothiophen-2-yl)methyl]-1H-pyrazol-5-amine]	> 100
O=C(N1CCOCC1)N1CCC(c2cc(NCc3ccc(Cl)s3)[nH]n2)C1 (stereo not shown) [Entry 206, N-[(5-chlorothiophen-2-yl)methyl]-3-[1-(morpholine-4-carbonyl)pyrrolidin-3-yl]-1H-pyrazol-5-amine]	> 100
O=C(N1CCOCC1)N1CCC(c2cc(NCc3ccc(Cl)s3)n(C(=O)N3CCOCC3)n2)CC1 [Entry 168, N-[(5-chlorothiophen-2-yl)methyl]-1-(morpholine-4-carbonyl)-3-[1-(morpholine-4-carbonyl)piperidin-4-yl]-1H-pyrazol-5-amine]	1 to 10
CC1CCCC(C)C1C(=O)n1nc(C2CCNCC2)cc1NCc1ccc(Cl)s1 (stereo not shown) [Entry 151, N-[(5-chlorothiophen-2-yl)methyl]-1-(2,6-dimethylcyclohexanecarbonyl)-3-(piperidin-4-yl)-1H-pyrazol-5-amine hydrochloride]	1 to 10
COCCN1CCC(c2cc(NCc3ccc(Cl)s3)[nH]n2)CC1 [Entry 200, N-[(5-chlorothiophen-2-yl)methyl]-3-[1-(2-methoxyethyl)piperidin-4-yl]-1H-pyrazol-5-amine]	> 100
Clc1ccc(CNc2cc(C3CCN(Cc4ncon4)CC3)n[nH]2)s1 [Entry 191, N-[(5-chlorothiophen-2-yl)methyl]-3-[1-(1,2,4-oxadiazol-3-ylmethyl)piperidin-4-yl]-1H-pyrazol-5-amine]	> 100
